Active and inactive are the calls of the source.
How the values were obtained:
Exodeoxyribonuclease V = Exodeoxyribonuclease V (Escherichia coli (strain K12), UniProt P04993+P07648+P08394); assay: RecBCD inhibition via phage-restricted bacterial growth – absorbance, V66 E. coli, mutant T4 phage, counter-screen for AddAB inhibitor project, dose response (AID 492957); assay type: functional, cell-based, Escherichia coli str. K-12 substr. MG1655
[1] = Counterscreen for AddAB inhibitors: absorbance-based bacterial cell-based high throughput dose response assay for inhibitors of bacterial viability. [Related pubchem assays (depositor defined):AID435030, AID449728, AID449731, AID488942, AID488955, AID488956]; assay type: functional
HEK293 = assay: EBV LMP1 TES2 canonical NF-kB signalling blockers – cell-based, HEK293, luciferase, cherry-pick, dose response (AID 588343); assay type: functional; details: Homo sapiens
INS1 [2] = assay: INS-1E survival protection against cytokine death – cell-based, luminescence, retest, dose response (AID 449756); assay type: functional; details: Rattus norvegicus;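 also: cell death triggered by IL-1 beta plus TNF-alpha plus IFN-gamma mixture; protective hits raise ATP signal compared with cytokine alone wells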
SUMO-activating enzyme [3] = biological target: T1, SUMO-activating enzyme (Homo sapiens, UniProt Q9UBT2); assay: blockers of UBC9-mediated SUMO conjugation – biochemical, AlphaScreen, SUMOylation inhibitor project, confirmation (AID 2018); assay type: functional
[4] = biological target: G-protein coupled receptor 55 (Homo sapiens, UniProt Q9Y2T6); assay: inhibition of LPI-stimulated GPR55 beta-arrestin translocation – imaging, U2OS, beta-arrestin-GFP, LPI agonist, primary screen (AID 2013); assay type: functional;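 also: antagonist potency measured as reduced agonist-driven arrestin aggregation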
SUMO-activating enzyme [5] = biological target: T1, SUMO-activating enzyme; assay: blockers of SAE1/SAE2–UBC9 SUMO transfer – biochemical, HTRF, uHTS, primary screen (AID 2006); assay type: protein-complex assay
[6] = biological target: Eukaryotic translation initiation factor 4E (Mus musculus, UniProt P63073); assay: blockers of eIF4G binding by eIF4E – biochemical, TR-FRET, dose response (AID 855); assay type: functional;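 also: potency for disrupting eIF4E binding to eIF4GI seen as loss of FRET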
[7] = biological target: T2, Rac GTPase-activating protein 1 (Homo sapiens, UniProt Q9H0H5); assay: blockers of MgcRacGAP-driven Rac1 GTP hydrolysis – biochemical, ADP Hunter fluorescence, primary and confirmatory, confirmation (AID 624330); assay type: functional
T2 sequence (Q9H0H5 whole entry): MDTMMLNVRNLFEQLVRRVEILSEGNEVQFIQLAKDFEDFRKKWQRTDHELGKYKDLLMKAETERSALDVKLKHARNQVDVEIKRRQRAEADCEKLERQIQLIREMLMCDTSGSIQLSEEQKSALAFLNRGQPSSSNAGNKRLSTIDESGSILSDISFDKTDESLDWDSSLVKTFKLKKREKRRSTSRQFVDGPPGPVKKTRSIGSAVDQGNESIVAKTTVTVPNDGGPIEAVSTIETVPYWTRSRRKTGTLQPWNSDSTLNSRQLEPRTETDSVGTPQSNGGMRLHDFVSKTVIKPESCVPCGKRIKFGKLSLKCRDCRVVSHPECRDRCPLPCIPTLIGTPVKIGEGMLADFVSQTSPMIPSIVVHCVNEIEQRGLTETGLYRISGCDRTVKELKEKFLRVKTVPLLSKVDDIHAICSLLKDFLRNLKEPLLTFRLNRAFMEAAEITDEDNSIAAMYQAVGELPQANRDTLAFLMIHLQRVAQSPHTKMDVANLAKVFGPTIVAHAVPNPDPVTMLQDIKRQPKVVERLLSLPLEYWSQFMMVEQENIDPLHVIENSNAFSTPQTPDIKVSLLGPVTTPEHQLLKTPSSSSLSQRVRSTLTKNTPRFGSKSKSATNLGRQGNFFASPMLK

[8] = Luminescence Cell-Based/Microorganism Confirmation at Dose of Inhibitors of Trypanosoma cruzi Infection. [Related pubchem assays: 1885, 1968 ]; assay type: functional
[9] = Trypanosoma cruzi growth suppression in host cells – NIH3T3 host cells, beta-gal luminescence, confirmation (AID 2044); assay type: functional, cell-based;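 also: intracellular parasites grown in NIH/3T3 mouse fibroblasts as host cells; luminescent beta-galactosidase reporter signal from transgenic T. cruzi replicating inside host cells; inhibitors lower the luminescence signal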
[10] = Luminescence Cell-Based Secondary HTS screen to identify cytotoxic compounds of NIH3T3 cells. [Related pubchem assays: 1885, 1968 ]; assay type: functional
[11] = NIH3T3 cell viability loss – ATP luminescence, mouse fibroblasts, counter-screen, dose response (AID 2010); assay type: functional, cell-based;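 also: cells exposed to compound for about 90 hours before reading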
[12] = T. cruzi infection blockers in NIH3T3 cells – beta-gal luminescence, NIH3T3 host cells, confirmation (AID 2630); assay type: functional, cell-based; details: Mus musculus
[13] = luciferase reporter signal suppression in cells – H4 neuroglioma cells, luminescence, dose response (AID 1990); assay type: functional, cell-based
[14] = Luminescence Cell-Based Dose Response HTS to Identify Inhibitors of 5'UTR Stem-Loop Driven Prion Protein mRNA Translation in H4 Neuroglioblastoma Cells. [Related pubchem assays: 1827 (Project Summary), 1813 (Primary HTS)]; assay type: functional
[15] = alpha-synuclein stem-loop luciferase translation blockers – H4 neuroglioma cells, luminescence, confirmation (AID 1988); assay type: functional, cell-based
Hexokinase HKDC1 = biological target: T3, Hexokinase HKDC1 (Homo sapiens, UniProt Q2TB90); assay: inhibition of HKDC1 glucose phosphorylation – biochemical, W721R variant, dose response (AID 504729); assay type: functional
T3 sequence (Q2TB90 whole entry): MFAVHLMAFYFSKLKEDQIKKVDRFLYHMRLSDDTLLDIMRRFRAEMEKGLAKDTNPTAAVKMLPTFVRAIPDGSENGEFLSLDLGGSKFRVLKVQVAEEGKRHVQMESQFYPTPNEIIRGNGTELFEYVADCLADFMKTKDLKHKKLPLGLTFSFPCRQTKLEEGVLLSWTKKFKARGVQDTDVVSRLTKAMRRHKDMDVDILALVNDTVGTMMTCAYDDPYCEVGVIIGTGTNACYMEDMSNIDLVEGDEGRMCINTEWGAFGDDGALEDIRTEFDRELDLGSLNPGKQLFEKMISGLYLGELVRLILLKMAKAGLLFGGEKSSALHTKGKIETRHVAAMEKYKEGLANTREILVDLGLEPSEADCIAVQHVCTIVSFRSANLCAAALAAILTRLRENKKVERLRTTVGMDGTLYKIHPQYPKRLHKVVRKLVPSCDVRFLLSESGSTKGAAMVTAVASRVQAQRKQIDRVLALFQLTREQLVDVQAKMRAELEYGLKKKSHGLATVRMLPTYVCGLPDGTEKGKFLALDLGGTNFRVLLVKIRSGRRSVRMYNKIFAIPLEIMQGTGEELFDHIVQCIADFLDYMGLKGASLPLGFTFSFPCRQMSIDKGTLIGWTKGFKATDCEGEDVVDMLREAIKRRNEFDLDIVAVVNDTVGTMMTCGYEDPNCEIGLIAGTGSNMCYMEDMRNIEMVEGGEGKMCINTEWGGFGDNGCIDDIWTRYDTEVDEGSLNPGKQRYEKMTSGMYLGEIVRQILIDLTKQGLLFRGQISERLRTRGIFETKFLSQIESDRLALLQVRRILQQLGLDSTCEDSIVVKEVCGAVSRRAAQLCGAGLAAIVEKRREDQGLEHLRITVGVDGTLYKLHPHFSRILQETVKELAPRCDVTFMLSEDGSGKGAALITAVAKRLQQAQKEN

[16] = biological target: T4, Replicative DNA helicase DnaB (Mycobacterium tuberculosis, UniProt P9WMR3); assay: DnaB intein splicing inhibitors, dose response, biochemical, cell-free fluorescence (AID 449749); assay type: functional
T4 sequence (P9WMR3 whole entry): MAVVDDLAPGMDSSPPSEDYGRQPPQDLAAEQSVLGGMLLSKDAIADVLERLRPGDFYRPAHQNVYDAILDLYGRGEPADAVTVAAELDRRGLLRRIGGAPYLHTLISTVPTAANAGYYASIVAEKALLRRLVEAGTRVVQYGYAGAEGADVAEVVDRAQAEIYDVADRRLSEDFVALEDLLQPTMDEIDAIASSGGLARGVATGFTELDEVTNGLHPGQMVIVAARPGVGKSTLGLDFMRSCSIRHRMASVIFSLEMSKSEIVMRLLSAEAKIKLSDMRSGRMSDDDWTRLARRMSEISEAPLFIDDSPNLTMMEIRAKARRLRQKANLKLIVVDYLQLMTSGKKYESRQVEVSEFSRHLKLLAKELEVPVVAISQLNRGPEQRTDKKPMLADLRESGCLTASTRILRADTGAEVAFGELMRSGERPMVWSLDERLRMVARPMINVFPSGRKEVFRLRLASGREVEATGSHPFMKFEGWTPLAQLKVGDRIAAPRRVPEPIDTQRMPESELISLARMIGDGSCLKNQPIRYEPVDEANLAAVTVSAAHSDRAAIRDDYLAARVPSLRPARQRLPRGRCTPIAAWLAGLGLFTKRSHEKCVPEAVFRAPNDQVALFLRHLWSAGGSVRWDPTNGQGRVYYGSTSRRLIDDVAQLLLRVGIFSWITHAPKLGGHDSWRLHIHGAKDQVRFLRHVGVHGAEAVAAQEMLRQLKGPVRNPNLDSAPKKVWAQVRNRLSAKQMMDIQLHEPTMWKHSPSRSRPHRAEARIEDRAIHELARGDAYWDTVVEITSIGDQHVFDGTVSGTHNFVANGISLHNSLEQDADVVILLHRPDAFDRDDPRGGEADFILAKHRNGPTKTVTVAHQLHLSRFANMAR

Protein RecA = biological target: T5, Protein RecA (Mycobacterium tuberculosis, UniProt P9WHJ3); assay: Fluorescence Cell-Free Homogeneous Dose Retest to Identify Inhibitors of RecA-Intein Splicing Activity. [Related pubchem assays (depositor defined):AID2097, AID2223, AID489010, AID492950]; assay type: functional
T5 sequence (P9WHJ3 whole entry): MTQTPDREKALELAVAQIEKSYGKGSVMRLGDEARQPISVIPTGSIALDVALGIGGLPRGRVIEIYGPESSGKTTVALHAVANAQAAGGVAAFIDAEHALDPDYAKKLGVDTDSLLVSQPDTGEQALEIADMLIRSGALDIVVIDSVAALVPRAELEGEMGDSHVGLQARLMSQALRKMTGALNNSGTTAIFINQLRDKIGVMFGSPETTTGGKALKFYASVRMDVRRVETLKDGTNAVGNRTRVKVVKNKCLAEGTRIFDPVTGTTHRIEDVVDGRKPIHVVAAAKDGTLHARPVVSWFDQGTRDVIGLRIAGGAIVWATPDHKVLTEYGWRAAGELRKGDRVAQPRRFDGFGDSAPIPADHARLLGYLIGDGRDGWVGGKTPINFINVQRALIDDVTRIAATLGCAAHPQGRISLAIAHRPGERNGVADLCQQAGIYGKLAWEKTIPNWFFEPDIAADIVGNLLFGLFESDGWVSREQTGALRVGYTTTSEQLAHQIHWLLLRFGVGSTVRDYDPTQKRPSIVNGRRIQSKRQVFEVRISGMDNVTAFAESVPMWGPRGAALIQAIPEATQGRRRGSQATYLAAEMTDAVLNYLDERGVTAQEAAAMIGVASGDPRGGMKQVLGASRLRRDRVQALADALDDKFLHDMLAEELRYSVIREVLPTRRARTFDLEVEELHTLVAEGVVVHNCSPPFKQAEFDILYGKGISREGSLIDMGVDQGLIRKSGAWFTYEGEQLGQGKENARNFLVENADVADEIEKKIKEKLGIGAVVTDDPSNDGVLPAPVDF

INS1 [17] = assay: beta-cell survival under cytokine stress – INS-1E, ATP luminescence, dry powder, dose response (AID 488844); assay type: functional, cell-based; details: Rattus norvegicus
[18] = biological target: T6, Sentrin-specific protease 8 (Homo sapiens, UniProt Q96LD8); assay type: functional
T6 sequence (Q96LD8 whole entry): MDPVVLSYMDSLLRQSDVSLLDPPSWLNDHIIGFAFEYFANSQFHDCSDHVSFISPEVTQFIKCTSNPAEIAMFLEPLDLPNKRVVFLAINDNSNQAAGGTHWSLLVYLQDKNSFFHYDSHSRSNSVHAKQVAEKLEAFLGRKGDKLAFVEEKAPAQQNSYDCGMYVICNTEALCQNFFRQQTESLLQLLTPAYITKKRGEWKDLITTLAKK

[19] = biological target: T6, Sentrin-specific protease 8; assay type: functional; remark: listed apart in the source

T1 sequence (Q9UBE0 whole entry): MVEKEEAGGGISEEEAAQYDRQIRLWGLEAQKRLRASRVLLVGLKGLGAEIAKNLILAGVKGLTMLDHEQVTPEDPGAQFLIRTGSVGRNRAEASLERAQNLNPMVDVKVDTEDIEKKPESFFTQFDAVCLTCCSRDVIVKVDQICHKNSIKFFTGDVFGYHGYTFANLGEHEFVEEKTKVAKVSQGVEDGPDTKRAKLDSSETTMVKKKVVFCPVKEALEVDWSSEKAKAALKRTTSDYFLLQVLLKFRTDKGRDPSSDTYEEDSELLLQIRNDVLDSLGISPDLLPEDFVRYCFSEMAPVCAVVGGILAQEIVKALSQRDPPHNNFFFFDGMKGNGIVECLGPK
T1 sequence (Q9UBT2 whole entry): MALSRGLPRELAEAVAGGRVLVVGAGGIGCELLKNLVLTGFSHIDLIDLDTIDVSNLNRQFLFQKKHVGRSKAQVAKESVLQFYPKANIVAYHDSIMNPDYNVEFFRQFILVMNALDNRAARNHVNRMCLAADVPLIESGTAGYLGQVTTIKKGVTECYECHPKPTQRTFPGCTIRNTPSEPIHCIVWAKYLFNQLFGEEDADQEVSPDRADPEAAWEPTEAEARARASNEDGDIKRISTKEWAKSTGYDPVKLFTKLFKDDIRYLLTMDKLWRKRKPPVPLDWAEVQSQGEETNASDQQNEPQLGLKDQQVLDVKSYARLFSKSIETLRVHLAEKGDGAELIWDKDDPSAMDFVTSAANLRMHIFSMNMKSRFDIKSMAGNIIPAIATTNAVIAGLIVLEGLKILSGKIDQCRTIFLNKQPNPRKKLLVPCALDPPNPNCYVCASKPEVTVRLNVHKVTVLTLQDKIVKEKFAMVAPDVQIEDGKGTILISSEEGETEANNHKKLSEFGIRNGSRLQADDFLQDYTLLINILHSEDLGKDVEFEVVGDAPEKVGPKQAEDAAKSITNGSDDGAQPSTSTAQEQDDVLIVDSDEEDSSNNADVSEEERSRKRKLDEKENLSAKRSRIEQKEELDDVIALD
Sequence of Exodeoxyribonuclease V (P04993 whole entry): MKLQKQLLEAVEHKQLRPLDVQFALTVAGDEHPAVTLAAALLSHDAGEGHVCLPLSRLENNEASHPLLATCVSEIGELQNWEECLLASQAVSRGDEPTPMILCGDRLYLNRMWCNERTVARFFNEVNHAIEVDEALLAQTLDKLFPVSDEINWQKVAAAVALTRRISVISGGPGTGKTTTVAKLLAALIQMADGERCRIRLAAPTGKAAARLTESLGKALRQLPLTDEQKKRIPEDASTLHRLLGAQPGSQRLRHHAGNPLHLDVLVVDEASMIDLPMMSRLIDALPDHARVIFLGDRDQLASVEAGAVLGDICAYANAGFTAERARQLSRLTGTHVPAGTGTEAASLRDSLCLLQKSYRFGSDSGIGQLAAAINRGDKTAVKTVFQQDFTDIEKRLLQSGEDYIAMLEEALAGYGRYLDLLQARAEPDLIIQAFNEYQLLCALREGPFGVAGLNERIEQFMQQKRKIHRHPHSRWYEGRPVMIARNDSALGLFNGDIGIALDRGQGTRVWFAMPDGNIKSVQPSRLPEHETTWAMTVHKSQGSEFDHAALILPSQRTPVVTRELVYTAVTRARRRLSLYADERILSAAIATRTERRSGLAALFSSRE
Sequence of Exodeoxyribonuclease V (P07648 whole entry): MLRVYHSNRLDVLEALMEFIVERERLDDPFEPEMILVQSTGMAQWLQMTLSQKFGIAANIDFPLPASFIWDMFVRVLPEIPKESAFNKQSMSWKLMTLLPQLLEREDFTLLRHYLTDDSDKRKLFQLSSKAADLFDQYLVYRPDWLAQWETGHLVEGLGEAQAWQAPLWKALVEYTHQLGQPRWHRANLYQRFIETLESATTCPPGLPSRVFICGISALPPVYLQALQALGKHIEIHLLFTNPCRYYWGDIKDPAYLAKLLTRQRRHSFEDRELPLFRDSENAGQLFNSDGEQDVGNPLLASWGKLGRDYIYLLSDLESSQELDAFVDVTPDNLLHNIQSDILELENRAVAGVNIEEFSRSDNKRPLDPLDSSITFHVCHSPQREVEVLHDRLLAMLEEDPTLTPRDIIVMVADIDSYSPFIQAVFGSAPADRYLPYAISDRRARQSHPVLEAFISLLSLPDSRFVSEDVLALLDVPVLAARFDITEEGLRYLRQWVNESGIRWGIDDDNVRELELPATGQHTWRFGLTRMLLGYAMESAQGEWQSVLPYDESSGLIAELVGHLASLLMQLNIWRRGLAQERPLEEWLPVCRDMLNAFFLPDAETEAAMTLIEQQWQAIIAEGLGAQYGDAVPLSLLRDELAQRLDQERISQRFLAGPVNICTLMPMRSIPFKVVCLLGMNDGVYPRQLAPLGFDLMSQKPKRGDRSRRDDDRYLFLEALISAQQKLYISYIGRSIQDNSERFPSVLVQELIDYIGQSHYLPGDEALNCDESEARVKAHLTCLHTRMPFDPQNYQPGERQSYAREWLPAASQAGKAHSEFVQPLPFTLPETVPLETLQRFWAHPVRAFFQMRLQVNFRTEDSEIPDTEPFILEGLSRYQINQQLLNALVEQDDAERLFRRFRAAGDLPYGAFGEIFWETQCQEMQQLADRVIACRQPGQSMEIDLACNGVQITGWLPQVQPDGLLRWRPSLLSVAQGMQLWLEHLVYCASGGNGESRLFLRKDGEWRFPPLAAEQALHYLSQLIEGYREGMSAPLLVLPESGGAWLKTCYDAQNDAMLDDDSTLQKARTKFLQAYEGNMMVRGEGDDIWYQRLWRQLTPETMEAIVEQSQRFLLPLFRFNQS
Sequence of Exodeoxyribonuclease V (P08394 whole entry): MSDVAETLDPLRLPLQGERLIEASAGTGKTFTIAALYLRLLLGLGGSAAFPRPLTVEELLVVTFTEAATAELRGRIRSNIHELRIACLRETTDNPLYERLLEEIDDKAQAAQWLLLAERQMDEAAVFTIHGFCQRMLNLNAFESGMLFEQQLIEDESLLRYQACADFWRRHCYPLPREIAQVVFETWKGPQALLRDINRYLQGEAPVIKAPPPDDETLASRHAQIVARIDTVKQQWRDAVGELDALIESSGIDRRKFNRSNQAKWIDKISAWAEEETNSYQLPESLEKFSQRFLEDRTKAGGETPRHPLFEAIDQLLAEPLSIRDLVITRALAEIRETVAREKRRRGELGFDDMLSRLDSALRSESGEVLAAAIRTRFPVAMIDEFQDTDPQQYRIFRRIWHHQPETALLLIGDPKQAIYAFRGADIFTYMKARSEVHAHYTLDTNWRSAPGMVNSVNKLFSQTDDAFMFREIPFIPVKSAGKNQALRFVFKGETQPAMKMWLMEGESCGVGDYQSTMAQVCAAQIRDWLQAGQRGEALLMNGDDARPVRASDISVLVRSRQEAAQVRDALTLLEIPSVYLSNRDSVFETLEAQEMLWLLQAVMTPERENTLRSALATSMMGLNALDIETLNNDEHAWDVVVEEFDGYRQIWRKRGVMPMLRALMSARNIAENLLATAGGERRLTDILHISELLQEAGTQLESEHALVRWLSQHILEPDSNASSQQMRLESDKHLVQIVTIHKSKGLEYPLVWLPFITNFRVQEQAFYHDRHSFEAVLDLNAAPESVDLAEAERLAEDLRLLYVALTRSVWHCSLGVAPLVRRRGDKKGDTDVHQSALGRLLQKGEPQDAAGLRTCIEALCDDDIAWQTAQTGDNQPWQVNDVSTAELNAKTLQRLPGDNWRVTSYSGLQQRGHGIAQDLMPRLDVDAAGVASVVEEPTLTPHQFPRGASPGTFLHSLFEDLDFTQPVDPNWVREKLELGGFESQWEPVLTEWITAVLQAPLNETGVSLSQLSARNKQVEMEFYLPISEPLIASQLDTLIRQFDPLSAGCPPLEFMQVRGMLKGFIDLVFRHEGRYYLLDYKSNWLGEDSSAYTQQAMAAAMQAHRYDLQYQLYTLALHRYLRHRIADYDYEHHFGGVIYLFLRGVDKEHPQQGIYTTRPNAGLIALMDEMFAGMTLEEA
Sequence of Eukaryotic translation initiation factor 4E (P63073 whole entry): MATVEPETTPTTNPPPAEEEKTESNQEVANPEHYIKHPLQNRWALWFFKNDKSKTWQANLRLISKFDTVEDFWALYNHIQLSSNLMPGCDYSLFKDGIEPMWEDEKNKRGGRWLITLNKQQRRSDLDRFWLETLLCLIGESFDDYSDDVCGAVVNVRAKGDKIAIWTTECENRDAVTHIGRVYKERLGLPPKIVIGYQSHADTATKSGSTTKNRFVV
Sequence of G-protein coupled receptor 55 (Q9Y2T6 whole entry): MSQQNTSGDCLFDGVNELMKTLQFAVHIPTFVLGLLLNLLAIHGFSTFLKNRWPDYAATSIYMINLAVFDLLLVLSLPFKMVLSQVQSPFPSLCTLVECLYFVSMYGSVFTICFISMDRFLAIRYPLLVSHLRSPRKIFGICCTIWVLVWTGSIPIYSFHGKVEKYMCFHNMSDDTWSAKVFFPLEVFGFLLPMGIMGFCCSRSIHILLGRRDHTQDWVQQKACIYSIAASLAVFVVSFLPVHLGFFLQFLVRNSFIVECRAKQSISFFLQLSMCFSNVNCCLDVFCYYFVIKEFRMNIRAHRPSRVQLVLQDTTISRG

CCC(=O)NC(c1ccc(C)cc1)c1cc(Cl)c2cccnc2c1O (configuration not stated)
IC50 (Exodeoxyribonuclease V): > 119 µM (inactive) | IC50 [1]: > 119 µM (inactive) | AC50 (HEK293): 12.9 µM (active) | AC50 (INS1 [2]): 1.65 µM (active)

O=C(O)c1cccc(N2C(=O)/C(=C/c3ccc(SCc4ccc(Cl)cc4)o3)SC2=S)c1
IC50 (SUMO-activating enzyme [3]): 1.39 µM (active) | IC50 [4]: 4.43 µM (active) | IC50 (SUMO-activating enzyme [5]): 14.6 µM (active) | IC50 [6]: 29.9 µM (active) | IC50 [7]: 132 µM (active)

O=C(Cc1cn(Cc2cccc(Cl)c2)c2ccccc12)N1CCCCCC1
EC50 [8]: 3.09 µM (active) | EC50 [9]: 1.75 µM (active) | EC50 [10]: > 195 µM (not active) | EC50 [11]: > 60 µM (not active) | EC50 [12]: 3.09 µM (active)

CSc1ccc(CN2CCCC(CNC(=O)c3ccc(F)cc3)C2)cc1 (configuration not stated)
EC50 [8]: 7.17 µM (active) | EC50 [9]: < 0.1 µM (active) | EC50 [10]: > 195 µM (not active) | EC50 [11]: > 30 µM (not active) | EC50 [12]: 7.17 µM (active) | EC50 (cells): 0.12 µM (active)

CCCCC[C@H](O)/C=C/[C@@H]1[C@@H](C/C=C\CCCC(=O)OC)[C@@H](O)C[C@H]1O
EC50 [13]: > 120 µM (not active) | EC50 [14]: > 120 µM (not active) | IC50 (SUMO-activating enzyme [3]): 10.5 µM (active) | EC50 [15]: > 120 µM (not active) | IC50 (SUMO-activating enzyme [5]): 18.4 µM (active) | IC50 [6]: 8.7 µM (active) | IC50 (Hexokinase HKDC1): 9.12 µM (active) | AC50 [16]: 16.1 µM (active) | EC50 (Protein RecA): 12.2 µM (active)

C[C@@H]1CN([C@@H](C)CO)C(=O)c2cccc(NC(=O)Nc3ccccc3)c2O[C@H]1CN(C)S(=O)(=O)c1ccc(Cl)cc1
AC50 (INS1 [17]): 116 µM (active)

O=C(CCN1CCN(c2ccccc2)CC1)N/N=C/c1ccc([N+](=O)[O-])o1
EC50 [9]: < 0.1 µM (active) | EC50 [11]: > 60 µM (not active) | IC50 (Exodeoxyribonuclease V): > 119 µM (inactive) | IC50 [1]: > 39.5 µM (inactive) | IC50 [18]: 96.9 µM (inactive) | IC50 [19]: 40 µM (active) | EC50 (cells): 0.037 µM (active)
